IC50 data for 25 molecules are collected here from patent US20250304567A1, “PYRROLIDIONE DERIVATIVES AS INHIBITORS OF NF KAPPA B INDUCING KINASE” (priority 2022, published 2025).

Experiment [1] concerns p-IKKa levels in L363 (NIK translocated multiple myeloma) cells. Description: Effect of compounds on p-IKKa levels in L363 (NIK translocated multiple myeloma) cells (AlphaLISA SureFire Ultra p-IKKa Ser176/180). In kind it is cell-based, human. To be noted: average if tested more than once, read-out: Assay 2 IC50. The method, then:
Assay 2: Effect of Compounds on p-IKKa Levels in L363 (NIK Translocated Multiple Myeloma) Cells
All compounds tested were dissolved and serially diluted in DMSO, 1:3 dilution for 11 points in an Echo compatible plate. 100% DMSO was added to columns 12 and 24 of the plate to serve as high and low signal controls. This compound plate was used to spot 20 nL of compound or DMSO into a Greiner 384 well TC plate (781080). The final DMSO concentration was 0.3% (v/v) in cell assays. Human L363 cells (ATCC) were cultured in RPM11640 medium supplemented with GlutaMax, non-essential amino acids, sodium pyruvate and 10% fetal bovine serum. Cells were routinely maintained at densities of 0.2×10^6 cells per ml-2×10^6 cells per mL at 37° C. in a humidified 5% CO2 atmosphere incubator. Cells were passaged twice a week splitting back to obtain the low density. The day before the assay, cells were washed twice in HBSS (Hank's Balanced Salt Solution), resuspended in Dulbecco's Modified Eagle Medium (DMEM)+0.5% IgG and protease free BSA (Jackson Immuno Research Laboratories), +/−250 ng/ml recombinant human B-cell activating factor (BAFF/BLyS/TNFSF13B) and incubated overnight at 37° C. in a humidified 5% CO2 atmosphere (bulk stimulation with or without BAFF). The next day, the cell concentration was adjusted to 1×10^7 cells/ml in DMEM+/−250 ng/ml BAFF+/−10 μM MG132 and plated at 10 μl/well into compound or DMSO spotted 384 well TC plates. Seeded cells were incubated at 37° C. in a humidified 5% CO2 atmosphere for 6 h. After 6 h, the plates were removed from the incubator and cell lysis was achieved by the addition of 2.5 μl 5× lysis buffer containing protease and phosphatase inhibitors, followed by shaking on a plate shaker at room temperature for 15 min. At the end of this incubation, lysed cells were sequentially treated and incubated with acceptor and donor bead mixes according to the manufacturer's protocol for a 1 plate/2-incubation suspension cell assay (AlphaLISA SureFire Ultra p-IKKa (Ser 176/180) Assay Kit (Perkin Elmer). Plates were read using an EnVision Multilabel Plate Reader (Perkin Elmer). Within an experiment, a concentration response curve for each compound was run in duplicate. The signal obtained in the test wells was normalized using high signal (BAFF stimulated cells, DMSO, MG132) and low signal (unstimulated cells, DMSO) controls. To determine the IC50, a sigmoidal curve was fitted to the plot of % inhibition versus Log10 compound concentration.

The target in experiment [2] is Recombinant Human NF-kappaB-Inducing Kinase (NIK/MAP3K14) (Homo sapiens, UniProt Q99558). Description: Inhibition of auto-phosphorylation of recombinant human NIK/MAP3K14 activity (AlphaScreen). In kind it is biochemical. The settings on record: 5 μM ATP, 1 nM NIK, average if tested more than once. How it is done: Assay 1: Inhibition of Auto-Phosphorylation of Recombinant Human NF-kappaB-Inducing Kinase (NIK/MAP3K14) Activity (AlphaScreen™)
Chain of Recombinant Human NF-kappaB-Inducing Kinase (NIK/MAP3K14) (Q99558 whole entry): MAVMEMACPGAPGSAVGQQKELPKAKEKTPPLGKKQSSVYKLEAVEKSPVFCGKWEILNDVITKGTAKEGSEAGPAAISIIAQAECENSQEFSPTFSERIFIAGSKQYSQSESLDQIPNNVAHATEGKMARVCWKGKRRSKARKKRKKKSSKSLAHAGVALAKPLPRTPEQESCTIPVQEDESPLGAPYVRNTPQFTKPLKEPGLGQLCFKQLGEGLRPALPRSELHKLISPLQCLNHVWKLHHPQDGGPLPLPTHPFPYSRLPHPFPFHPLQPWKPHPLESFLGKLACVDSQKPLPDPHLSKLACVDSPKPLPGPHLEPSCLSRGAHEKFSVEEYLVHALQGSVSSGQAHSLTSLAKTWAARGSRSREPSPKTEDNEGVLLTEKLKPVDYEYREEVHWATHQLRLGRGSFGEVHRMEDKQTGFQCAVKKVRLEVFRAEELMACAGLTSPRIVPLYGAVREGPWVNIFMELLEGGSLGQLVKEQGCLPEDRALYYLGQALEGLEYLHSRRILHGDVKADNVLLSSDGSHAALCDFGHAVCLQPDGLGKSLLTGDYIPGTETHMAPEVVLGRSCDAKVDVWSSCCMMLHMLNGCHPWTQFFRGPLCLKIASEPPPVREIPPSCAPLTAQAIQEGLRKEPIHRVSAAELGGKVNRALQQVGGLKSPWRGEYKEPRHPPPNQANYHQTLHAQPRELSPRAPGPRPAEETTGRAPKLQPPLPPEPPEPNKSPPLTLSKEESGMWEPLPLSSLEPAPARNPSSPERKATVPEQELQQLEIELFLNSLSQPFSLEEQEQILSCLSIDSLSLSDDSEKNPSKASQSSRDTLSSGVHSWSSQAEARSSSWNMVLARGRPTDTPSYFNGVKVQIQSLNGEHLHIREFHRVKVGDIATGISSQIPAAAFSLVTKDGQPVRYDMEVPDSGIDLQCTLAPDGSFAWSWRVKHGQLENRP
NIK/MAP3K14 auto-phosphorylation activity was measured using the AlphaScreen™ (αscreen) format (Perkin Elmer). All compounds tested were dissolved in dimethyl sulfoxide (DMSO) and further dilutions were made in assay buffer. The final DMSO concentration was 0.7% (v/v) in assays. The assay buffer was 50 mM Tris pH 7.5 containing 1 mM EGTA (ethylene glycol tetraacetic acid), 1 mM DTT (dithiothreitol), 0.1 mM Na3VO4, 5 mM MgCl2, and 0.01% Tween®20. The assays were carried out in 384 well Proxiplates (Perkin Elmer). The incubations consisted of the compound, 5 μM Adenosine-5′-triphosphate (ATP), and 1 nM NIK/MAP3K14. Incubations were initiated by the addition of GST-tagged NIK/MAP3K14 enzyme, carried out for 2 h at 25° C. and terminated by addition of stop buffer containing anti-phospho-IKK Ser176/180 antibody. Protein A Acceptor and Glutathione-Donor beads were added before reading using an EnVision Multilabel Plate Reader (Perkin Elmer). The signal obtained in the wells was normalized using high (full enzyme activity, 0.7% DMSO) and low controls (no enzyme activity, 0.7% DMSO, no ATP). IC50's were determined by fitting a sigmoidal curve to % inhibition of control versus Log10 compound concentration.
Background: Alpha assays give light when donor and acceptor beads are brought close together.

The mark [3] stands for this setting: Homo sapiens, L-363, p-IKKa levels in L363 cells.

Molecules are shown by their SMILES. Where two headings read alike, the source gives them in different places.

Broadly, the IC50 is the concentration that inhibits the measured activity by half. For the molecule `CC(Nc1nccc(-c2nc(-c3cccc(C4(O)CCN(C)C4=O)c3)cs2)n1)c1cc[nH]n1` (single isomer, unassigned) [Example 42], the IC50 in experiment [1] (p-IKKa levels in L363 cells) was over 501 nM; in experiment [2], under 100 nM.
Take `CN1CCC(O)(c2cncc(-c3csc(-c4ccnc(Nc5ccnn5C)n4)n3)c2)C1=O` (single isomer, unassigned) [Example 46, (R)-3-Hydroxy-1-methyl-3-(5-(2-(2-((1-methyl-1H-pyrazol-5-yl)amino)pyrimidin-4-yl)thiazol-4-yl)pyridin-3-yl)pyrrolidin-2-one or (S)-3-hydroxy-1-methyl-3-(5-(2-(2-((1-methyl-1H-pyrazol-5-yl)amino)pyrimidin-4-yl)thiazol-4-yl)pyridin-3-yl)pyrrolidin-2-one]: the IC50 in experiment [1] (setting [3]) and in experiment [2] was under 100 nM each time.
Regarding `CC(Nc1nccc(-c2nc(-c3cccc(C4(O)CCN(C)C4=O)c3)cs2)n1)c1ccn(C)n1` (single isomer, unassigned) [Example 50], the IC50 in experiment [1] (p-IKKa levels in L363 cells) is over 501 nM; in experiment [2], 100 to 500 nM.
For `CC(Nc1nccc(-c2nc(-c3cccc(C4(O)CCN(C)C4=O)c3)cs2)n1)c1ccn(C)n1` (single isomer, unassigned) [Example 51], in that order: 100 to 500 nM and under 100 nM.
For the molecule `CN1CCC(O)(c2cc(C#N)cc(-c3csc(-c4ccnc(Nc5ccn(C)n5)n4)n3)c2)C1=O` (single isomer, unassigned) [Example 57, 3-(3-hydroxy-1-methyl-2-oxopyrrolidin-3-yl)-5-(2-(2-((1-methyl-1H-pyrazol-3-yl)amino)pyrimidin-4-yl)thiazol-4-yl)benzonitrile], the IC50 was over 501 nM in experiment [1] (setting [3]) and under 100 nM in experiment [2].
For `CN1CCC(O)(c2cc(C#N)cc(-c3csc(-c4ccnc(Nc5ccn(C)n5)n4)n3)c2)C1=O` (single isomer, unassigned) [Example 58, 3-(3-hydroxy-1-methyl-2-oxopyrrolidin-3-yl)-5-(2-(2-((1-methyl-1H-pyrazol-3-yl)amino)pyrimidin-4-yl)thiazol-4-yl)benzonitrile], the IC50 in experiment [1] (p-IKKa levels in L363 cells) and in experiment [2] was over 501 nM each time.
`CN1C(=O)[C@](O)(c2ccnc(-c3csc(-c4ccnc(Nc5ccn(C)n5)n4)n3)c2)C[C@H]1C(F)(F)F` (single isomer, unassigned) [Example 59]: the IC50 in experiment [1] (setting [3]) is 100 to 500 nM; in experiment [2], under 100 nM.
For `CN1C(=O)[C@@](O)(c2ccnc(-c3csc(-c4ccnc(Nc5ccn(C)n5)n4)n3)c2)C[C@@H]1C(F)(F)F` (single isomer, unassigned) [Example 60], in that order: over 501 nM and 100 to 500 nM.
On the same counts, the results for `CN1C(=O)[C@](O)(c2cncc(-c3csc(-c4ccnc(Nc5ccn(C)n5)n4)n3)c2)C[C@H]1C(F)(F)F` (single isomer, unassigned) [Example 61] are 100 to 500 nM and under 100 nM.
On to `CN1C(=O)[C@@](O)(c2cncc(-c3csc(-c4ccnc(Nc5ccn(C)n5)n4)n3)c2)C[C@@H]1C(F)(F)F` (single isomer, unassigned) [Example 62], for which the IC50 in experiment [1] (setting [3]) and in experiment [2] was over 501 nM in each case.
On to `C[C@H](Nc1nccc(-n2ccc(-c3cccc([C@]4(O)CCN(C)C4=O)c3)n2)n1)c1ccnn1C` (single isomer, unassigned) [Example 91], for which the figures for the IC50 in experiment [1] (setting [3]) and in experiment [2] were 100 to 500 nM and under 100 nM, respectively.
For `C[C@@H](Nc1nccc(-n2ccc(-c3cccc([C@]4(O)CCN(C)C4=O)c3)n2)n1)c1ccnn1C` (single isomer, unassigned) [Example 92], in that order: under 100 nM and under 100 nM.
As to `C[C@H](Nc1nccc(-n2ccc(-c3cccc([C@]4(O)CCN(C)C4=O)c3)n2)n1)c1cnn(C)c1` (single isomer, unassigned) [Example 93], the values for the IC50 in experiment [1] (setting [3]) and in experiment [2] were 100 to 500 nM and under 100 nM, respectively.
Turning to `C[C@@H](Nc1nccc(-n2ccc(-c3cccc([C@]4(O)CCN(C)C4=O)c3)n2)n1)c1cnn(C)c1` (single isomer, unassigned) [Example 94], the IC50 in experiment [1] (setting [3]) was over 501 nM; in experiment [2], under 100 nM.
Consider `C[C@H](Nc1nccc(-c2nc(-c3cccc([C@]4(O)CCN(C)C4=O)c3)cs2)n1)c1ccnn1C` (single isomer, unassigned) [Example 126], for which the results for the IC50 in experiment [1] (setting [3]) and in experiment [2] were 100 to 500 nM and under 100 nM, respectively.
For `C[C@@H](Nc1nccc(-c2nc(-c3cccc([C@]4(O)CCN(C)C4=O)c3)cs2)n1)c1ccnn1C` (single isomer, unassigned) [Example 127], in that order: 100 to 500 nM and under 100 nM.
For `COC[C@H](Nc1nccc(-c2nc(-c3cccc([C@]4(O)CCN(C)C4=O)c3)cs2)n1)c1ccnn1C` (single isomer, unassigned) [Example 129], the IC50 in experiment [1] (setting [3]) is 100 to 500 nM; in experiment [2], under 100 nM.
For `COC[C@@H](Nc1nccc(-c2nc(-c3cccc([C@]4(O)CCN(C)C4=O)c3)cs2)n1)c1ccnn1C` (single isomer, unassigned) [Example 130], the IC50 in experiment [1] (setting [3]) was 100 to 500 nM; in experiment [2], under 100 nM.
Consider `C[C@H](Nc1nccc(-c2csc(-c3cccc([C@]4(O)CCN(C)C4=O)c3)n2)n1)c1cncn1C` (single isomer, unassigned) [Example 133], for which the 50% inhibitory concentration (IC50) is over 501 nM in experiment [1] (setting [3]) and under 100 nM in experiment [2].
Regarding `C[C@@H](Nc1nccc(-c2csc(-c3cccc([C@]4(O)CCN(C)C4=O)c3)n2)n1)c1cncn1C` (single isomer, unassigned) [Example 134], the IC50 in experiment [1] (setting [3]) and in experiment [2] was over 501 nM throughout.
On to `CN1CC[C@@](O)(c2cccc(-c3nc(-c4ccnc(N[C@@H]5CCCc6cn[nH]c65)n4)cs3)c2)C1=O` (single isomer, unassigned) [Example 135], for which the IC50 in experiment [1] (setting [3]) and in experiment [2] was over 501 nM throughout.
`CN1CC[C@@](O)(c2cccc(-c3nc(-c4ccnc(N[C@H]5CCCc6cn[nH]c65)n4)cs3)c2)C1=O` (single isomer, unassigned) [Example 136]: the IC50 in experiment [1] (setting [3]) was over 501 nM; in experiment [2] it was 100 to 500 nM.
For `C[C@H](Nc1nccc(-c2csc(-c3cccc([C@]4(O)CCN(C)C4=O)c3)n2)n1)c1cn[nH]c1` (single isomer, unassigned) [Example 138], the values for the IC50 in experiment [1] (setting [3]) and in experiment [2] were over 501 nM and under 100 nM, respectively.
On the same counts, the results for `C[C@@H](Nc1nccc(-c2csc(-c3cccc([C@]4(O)CCN(C)C4=O)c3)n2)n1)c1cn[nH]c1` (single isomer, unassigned) [Example 139] are under 100 nM and under 100 nM.
For `CN1CC[C@@](O)(c2ccnc(-c3csc(-c4ccnc(Nc5ccnn5C)n4)n3)c2)C1=O` (single isomer, unassigned) [Example 144, (R)-3-hydroxy-1-methyl-3-(2-(2-(2-((1-methyl-1H-pyrazol-5-yl)amino)pyrimidin-4-yl)thiazol-4-yl)pyridin-4-yl)pyrrolidin-2-one or (S)-3-hydroxy-1-methyl-3-(2-(2-(2-((1-methyl-1H-pyrazol-5-yl)amino)pyrimidin-4-yl)thiazol-4-yl)pyridin-4-yl)pyrrolidin-2-one], in that order: 100 to 500 nM and under 100 nM.
